One experiment has as its target T1, human TLR7 (Homo sapiens, UniProt Q9NYK1).
T1 construct: host or cells: HEK-Blue cells
T1 sequence (Q9NYK1 27-1049): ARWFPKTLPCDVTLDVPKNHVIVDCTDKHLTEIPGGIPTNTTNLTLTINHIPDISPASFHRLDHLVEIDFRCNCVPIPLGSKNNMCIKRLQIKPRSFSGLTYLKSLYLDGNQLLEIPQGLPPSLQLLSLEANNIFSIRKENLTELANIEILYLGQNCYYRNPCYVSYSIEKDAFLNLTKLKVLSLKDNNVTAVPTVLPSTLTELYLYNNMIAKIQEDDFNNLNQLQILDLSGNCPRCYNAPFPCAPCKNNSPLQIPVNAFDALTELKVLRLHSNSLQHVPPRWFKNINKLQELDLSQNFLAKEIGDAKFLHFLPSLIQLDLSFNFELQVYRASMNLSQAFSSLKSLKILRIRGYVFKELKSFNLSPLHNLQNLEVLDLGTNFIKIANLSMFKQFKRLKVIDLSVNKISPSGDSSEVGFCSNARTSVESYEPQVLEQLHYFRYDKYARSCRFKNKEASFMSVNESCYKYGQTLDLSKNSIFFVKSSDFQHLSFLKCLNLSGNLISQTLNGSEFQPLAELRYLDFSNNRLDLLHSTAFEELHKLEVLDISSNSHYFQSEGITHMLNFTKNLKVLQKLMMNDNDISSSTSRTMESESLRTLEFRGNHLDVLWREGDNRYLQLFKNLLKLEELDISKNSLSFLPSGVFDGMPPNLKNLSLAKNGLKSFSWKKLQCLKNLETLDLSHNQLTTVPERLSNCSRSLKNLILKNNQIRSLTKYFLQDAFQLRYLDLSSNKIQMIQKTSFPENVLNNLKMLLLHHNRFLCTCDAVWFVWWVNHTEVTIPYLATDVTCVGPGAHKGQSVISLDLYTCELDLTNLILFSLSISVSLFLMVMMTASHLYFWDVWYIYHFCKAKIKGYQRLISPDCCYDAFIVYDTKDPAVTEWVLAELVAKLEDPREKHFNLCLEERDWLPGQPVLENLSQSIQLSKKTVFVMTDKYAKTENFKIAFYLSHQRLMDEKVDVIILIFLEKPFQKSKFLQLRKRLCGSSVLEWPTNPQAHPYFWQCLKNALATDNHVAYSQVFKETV
The experiment in a line: TLR7 inhibition reporter assay (HEK-Blue cells, SEAP reporter, gardiquimod stimulation). It counts as cell-based. The following applies: HEK-Blue cells overexpressing human TLR7, SEAP reporter, gardiquimod 7.5 μM; read-out: TLR7 IC50. Here is the method:
(§1) TLR7/8/9 Inhibition Reporter Assays
(§2) HEK-Blue™-cells (Invivogen) overexpressing human TLR7, TLR8 or TLR9 receptors were used for screening inhibitors of these receptors using an inducible SEAP (secreted embryonic alkaline phosphatase) reporter gene under the control of the IFN-β minimal promoter fused to five NF-κB and AP-1-binding sites. Briefly, cells are seeded into Greiner 384 well plates (15000 cells per well for TLR7, 20,000 for TLR8 and 25,000 for TLR9) and then treated with test compounds in DMSO to yield a final dose response concentration range of 0.05 nM-50 μM. After a 30 minute compound pre-treatment at room temperature, the cells are then stimulated with a TLR7 ligand (gardiquimod at a final concentration of 7.5 μM), TLR8 ligand (R848 at a final concentration of 15.9 μM) or TLR9 ligand (ODN2006 at a final concentration of 5 nM) to activate NF-κB and AP-1 which induce the production of SEAP. After a 22 hour incubation at 37° C., 5% CO2, SEAP levels are determined with the addition of HEK-Blue™ Detection reagent (Invivogen), a cell culture medium that allows for detection of SEAP, according to manufacturer's specifications. The percent inhibition is determined as the % reduction in the HEK-Blue signal present in wells treated with agonist plus DMSO alone compared to wells treated with a known inhibitor.

For another experiment, the target named is T2, human TLR8 (Homo sapiens, UniProt Q9NR97).
T2 construct: host or cells: HEK-Blue cells
T2 sequence (Q9NR97 27-1041): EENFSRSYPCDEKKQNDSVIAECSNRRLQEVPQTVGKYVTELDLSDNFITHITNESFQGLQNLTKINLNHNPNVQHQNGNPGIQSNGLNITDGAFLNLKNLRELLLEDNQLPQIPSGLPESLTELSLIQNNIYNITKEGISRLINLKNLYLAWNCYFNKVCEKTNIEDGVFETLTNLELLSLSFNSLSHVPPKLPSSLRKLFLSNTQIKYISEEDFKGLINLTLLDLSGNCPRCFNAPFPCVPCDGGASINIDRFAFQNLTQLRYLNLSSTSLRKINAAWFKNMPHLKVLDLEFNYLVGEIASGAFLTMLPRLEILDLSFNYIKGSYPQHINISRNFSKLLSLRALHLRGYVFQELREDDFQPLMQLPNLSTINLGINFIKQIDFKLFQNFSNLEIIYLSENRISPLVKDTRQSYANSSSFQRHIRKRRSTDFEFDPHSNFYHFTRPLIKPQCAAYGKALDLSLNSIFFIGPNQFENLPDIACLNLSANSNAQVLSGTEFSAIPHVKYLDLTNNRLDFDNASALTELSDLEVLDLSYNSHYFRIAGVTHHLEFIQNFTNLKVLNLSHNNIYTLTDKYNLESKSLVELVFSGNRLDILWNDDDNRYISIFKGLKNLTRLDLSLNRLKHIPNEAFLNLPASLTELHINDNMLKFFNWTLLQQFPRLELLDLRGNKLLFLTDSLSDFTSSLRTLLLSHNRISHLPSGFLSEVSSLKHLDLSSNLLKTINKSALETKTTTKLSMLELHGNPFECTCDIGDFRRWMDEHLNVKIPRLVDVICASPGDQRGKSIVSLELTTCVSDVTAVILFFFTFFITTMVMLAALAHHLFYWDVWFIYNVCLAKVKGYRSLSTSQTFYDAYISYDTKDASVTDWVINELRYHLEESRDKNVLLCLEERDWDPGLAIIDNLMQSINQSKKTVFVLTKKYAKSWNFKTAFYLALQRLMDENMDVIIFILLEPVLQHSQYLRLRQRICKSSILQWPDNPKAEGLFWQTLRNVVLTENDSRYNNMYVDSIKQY
The experiment in a line: TLR8 inhibition reporter assay (HEK-Blue cells, SEAP reporter, R848 stimulation). It is filed as cell-based. The conditions noted are these: HEK-Blue cells overexpressing human TLR8, SEAP reporter, R848 15.9 μM; read-out: TLR8 IC50. The method, then: as §1, §2
For orientation: A reporter such as luciferase makes a cellular process visible.

The structures appear in SMILES notation.

As usually defined, the IC50 is the midpoint of a concentration-inhibition curve.

`Cc1cc(-c2[nH]c3sc(C(=O)N4CCOCC4)nc3c2C(C)C)cn2ncnc12` [Example 398, (6-isopropyl-5-(8-methyl-[1,2,4]triazolo[1,5-a]pyridin-6-yl)-4H-pyrrolo[3,2-d]thiazol-2-yl)(morpholino)methanone]: the IC50 at human TLR7 came out at 137 nM; at human TLR8 it was 365 nM.
The matching figures for `Cc1cc(-c2[nH]c3sc(C(=O)NCC4(S(C)(=O)=O)CC4)nc3c2C(C)C)cn2ncnc12` [Example 399, 6-isopropyl-5-(8-methyl-[1,2,4]triazolo[1,5-a]pyridin-6-yl)-N-((1-(methylsulfonyl)cyclopropyl)methyl)-4H-pyrrolo[3,2-d]thiazole-2-carboxamide]: 126 nM and 132 nM.
As to `Cc1c(-c2[nH]c3sc(CN4CCNC(=O)C4)nc3c2C(C)C)cn2ncnc2c1C` [Example 406, 4-((5-(7,8-dimethyl-[1,2,4]triazolo[1,5-a]pyridin-6-yl)-6-isopropyl-4H-pyrrolo[3,2-d]thiazol-2-yl)methyl) piperazin-2-one], the IC50 at human TLR7 turned out to be 2.74 nM; on human TLR8, 142 nM.
The matching figures for `CNC(=O)CN1CCC(c2nc3c(C(C)C)c(-c4cn5ncnc5c(C)c4C)[nH]c3s2)CC1` [Example 56, 2-(4-(5-(7,8-dimethyl-[1,2,4]triazolo[1,5-a]pyridin-6-yl)-6-isopropyl-4H-pyrrolo[3,2-d]thiazol-2-yl)piperidin-1-yl)-N-methylacetamide]: 4.36 nM and 3.43 nM.
Take `Cc1c(-c2[nH]c3sc(N4CCN(C5COC5)C[C@H]4C)nc3c2C(C)C)cn2ncnc2c1C` [Example 316, (R)-5-(7,8-dimethyl-[1,2,4]triazolo[1,5-a]pyridin-6-yl)-6-isopropyl-2-(2-methyl-4-(oxetan-3-yl)piperazin-1-yl)-4H-pyrrolo[3,2-d]thiazole]: the IC50 at human TLR7 worked out at 12 nM; on human TLR8, 52.4 nM.
For the compound `Cc1c(-c2[nH]c3sc(C4CCN(CCS(C)(=O)=O)CC4)nc3c2C(C)C)cn(C)c(=O)c1C` [Example 61, 5-(6-isopropyl-2-(1-(2-(methylsulfonyl)ethyl)piperidin-4-yl)-4H-pyrrolo[3,2-d]thiazol-5-yl)-1,3,4-trimethylpyridin-2(1H)-one], the IC50 at human TLR7 is 22.7 nM; at human TLR8 it was 5.33 nM.
As to `CNC(=O)CN1CCN(c2nc3c(C(C)C)c(-c4cn5ncnc5c(C)c4C)[nH]c3s2)[C@H](C)C1` [Example 315, (R)-2-(4-(5-(7,8-dimethyl-[1,2,4]triazolo[1,5-a]pyridin-6-yl)-6-isopropyl-4H-pyrrolo[3,2-d]thiazol-2-yl)-3-methylpiperazin-1-yl)-N-methylacetamide], the IC50 on human TLR7 turned out to be 5.22 nM; at human TLR8, 20.2 nM.
On to `Cc1c(-c2[nH]c3sc(N4CCN(CC(N)=O)C[C@H]4C)nc3c2C(C)C)cn2ncnc2c1C` [Example 313, (R)-2-(4-(5-(7,8-dimethyl-[1,2,4]triazolo[1,5-a]pyridin-6-yl)-6-isopropyl-4H-pyrrolo[3,2-d]thiazol-2-yl)-3-methylpiperazin-1-yl)acetamide], for which the concentration for half-maximal inhibition (IC50) at human TLR7 is 3.71 nM; at human TLR8, 1.72 nM.
As to `Cc1c(-c2[nH]c3sc(C(=O)NCCCN4CCCC4=O)nc3c2C(C)C)cn2ncnc2c1C` [Example 371, 5-(7,8-dimethyl-[1,2,4]triazolo[1,5-a]pyridin-6-yl)-6-isopropyl-N-(3-(2-oxopyrrolidin-1-yl)propyl)-4H-pyrrolo[3,2-d]thiazole-2-carboxamide], the IC50 at human TLR7 was 72.1 nM; at human TLR8, 29.4 nM.
Consider `COC1CN(C(=O)c2nc3c(C(C)C)c(-c4cc(C)c5ncnn5c4)[nH]c3s2)C1` [Example 396, (6-isopropyl-5-(8-methyl-[1,2,4]triazolo[1,5-a]pyridin-6-yl)-4H-pyrrolo[3,2-d]thiazol-2-yl)(3-methoxyazetidin-1-yl)methanone], for which the values for the IC50 on human TLR7 and on human TLR8 were 102 nM and 53.9 nM, respectively.
`Cc1c(-c2[nH]c3sc(CN4CC5(COC5)C4)nc3c2C(C)C)cn2ncnc2c1C` [Example 408, 6-((5-(7,8-dimethyl-[1,2,4]triazolo[1,5-a]pyridin-6-yl)-6-isopropyl-4H-pyrrolo[3,2-d]thiazol-2-yl)methyl)-2-oxa-6-azaspiro[3.3]heptane]: the figures for the IC50 at human TLR7 and at human TLR8 were 47.4 nM and 168 nM, respectively.
For the compound `Cc1c(-c2[nH]c3sc(N4CCN(CC(=O)N(C)C)C[C@H]4C)nc3c2C(C)C)cn2ncnc2c1C` [Example 312, (R)-2-(4-(5-(7,8-dimethyl-[1,2,4]triazolo[1,5-a]pyridin-6-yl)-6-isopropyl-4H-pyrrolo[3,2-d]thiazol-2-yl)-3-methylpiperazin-1-yl)-N,N-dimethylacetamide], the IC50 was 5.42 nM on human TLR7 and 17.8 nM at human TLR8.
On to `Cc1c(-c2[nH]c3sc(C(=O)N4CCCC4)nc3c2C(C)C)cn2ncnc2c1C` [Example 377, (5-(7,8-dimethyl-[1,2,4]triazolo[1,5-a]pyridin-6-yl)-6-isopropyl-4H-pyrrolo[3,2-d]thiazol-2-yl)(pyrrolidin-1-yl)methanone], for which the half-inhibitory concentration (IC50) on human TLR7 is 56.9 nM; on human TLR8, 18.2 nM.
With `CNC(=O)CN1CCN(c2nc3c(C(C)C)c(-c4cn5ncnc5c(C)c4C)[nH]c3s2)CC1` [Example 284, 2-(4-(5-(7,8-dimethyl-[1,2,4]triazolo[1,5-a]pyridin-6-yl)-6-isopropyl-4H-pyrrolo[3,2-d]thiazol-2-yl)piperazin-1-yl)-N-methylacetamide], the results for the IC50 on human TLR7 and at human TLR8 were 9.6 nM and 5.12 nM, respectively.
As to `Cc1cc(-c2[nH]c3sc(N4CCN(CC(C)(C)O)C[C@H]4C)nc3c2C(C)C)cn2ncnc12` [Example 359, (R)-1-(4-(6-isopropyl-5-(8-methyl-[1,2,4]triazolo[1,5-a]pyridin-6-yl)-4H-pyrrolo[3,2-d]thiazol-2-yl)-3-methylpiperazin-1-yl)-2-methylpropan-2-ol], the IC50 at human TLR7 was 1120 nM.

For the origin of these results see patent publication US20230139171A1 (SITA Information Networking Computing UK Limited, priority 2019, published 2023).
